Reference: patent US20140341939A1 (NATIONAL UNIVERSITY CORPORATION KOCHI UNIVERSITY, priority 2011, published 2014)
Entries after “also recorded” stand apart in the source; their conditions may differ. Where two headings read alike, the source gives them in different places. Where a SMILES comes first, the peptide text is derived from it. Where no end group is shown, it is not given here. [ ]: non-standard residue; d: D form. The star is where a group is joined. Biotin = O=C1N[C@H]2[C@H](CS[C@H]2CCCCC(=O)*)N1; βAla = NCCC(=O)O

Experiments:
serum peptidase [1] = system: serum peptidase
Procedure: (§1) Peptide was digested in TBS containing 10% fresh mouse serum or fresh human serum. After incubation at 37° C. for a given time, 1% trifluoro acid was added to remove various serum proteins by precipitation. After short centrifugation, the soluble fraction was analyzed by reversed-phase HPLC using a C18 analysis column. To normalize variation in the total amount of the peptide loaded for each HPLC, the peak of non-protein components contained in the serum, which is absorbed at the wavelength of 220 nm, was used as an internal control. The peak area of undigested peptides was quantitatively monitored by Chromatopac C-R8A (Shimadzu Corp., Kyoto, Japan), and the amount of the remaining peptide was calculated.
(§2) Therefore, the inventor examined the digestion resistance of peptide in vitro in a 10% fresh mouse serum. The amount of a remaining undigested peptide was quantified by HPLC.

serum peptidase [2] = test: Degradation of peptide in 10% fresh mouse serum (HPLC of remaining peptide)
Procedure: as §1, §2

[3] = system: peptidase activity in the serum; test: Effect of peptidase inhibitor on OVII peptide digestion by mouse serum; type: biochemical; conditions: inhibitor-containing buffer (FIGS. 22-24)
Text: Given the above-mentioned Examples, the inventor examined the effect of peptidase inhibitor on the peptide digestion to identify the peptidase in the serum.

DO11.10 cells [4] = test: Growth of CD4 T cells: proliferation of DO11.10 cells by OVII modified peptides (3H-thymidine); type: cell-based, mouse
DO11.10 cells [5] = test: Cell migration test through F2-IA^d cell layer (Transwell); type: cell-based, mouse
Procedure: F2-IA^d cells were cultured until confluence on an insert of Transwell plate (BD Labware, Billerica, Calif.). The cells were cultured in the presence of 500 U/ml rmIFN-γ for the last 3 days of culture. In addition, F2-IA^d cells were pulsed with various concentrations of OVAII peptide for the last 2 hr of culture. After the culture, F2-IA^d cells were washed and CD4^+ cells were isolated by negative selection (Dynal mouse CD4 negative isolation kit (Invitrogen)) from DO11.10 transgenic spleen cells to not less than 95% purity, which were added by 4×10^6 cells per well. The cells were incubated at 37° C., and the number of DO11.10 that migrated under the chamber in 6 hr was counted.

EG7 tumor = test: Antitumor activity by in vivo immunization with OVA-derived peptides (EL4 / EG7 tumor); conditions: CBF1 mouse, peptide-loaded LPS blast i.p. 3 times; EL4 / EG7 tumor (FIG. 8)
Text: CBF1 mouse was immunized with LPS blast of splenocyte pulsed with either λ repressor peptide ([…]; SEQ ID NO: 39) or OVAII peptide as a Th epitope peptide, and K^b-binding OVA-I peptide, which is a CTL inducing peptide. LPS blast derived from one spleen was pulsed with peptide, and intraperitoneally injected to immunize two mice. The next day of the third immunization, 9×10^6 EL4 cells and 1.2×10^7 EG7 cells were intradermally transplanted in a pair on the back skin of the mice. The tumor size was measured every other day. Immunization was performed once again 2 weeks from the tumor transplantation.
To verify the anti-tumor effect of inducing tumor-specific Th cells in vivo, the inventor compared the immunization protocol that induces 1. CTL alone, 2. CTL and a third party antigen-specific Th cell, and 3. CTL and tumor-specific Th cell. As the antigen presenting cell, LPS blast of spleen cell was used, and the APC loaded with each peptide alone or the mixture of each peptide was injected intraperitoneally 3 times (once per week). On the day of third immunization, 9×10^6 EL4 and 1.2×10^7 EG7 tumor were innoculated on the opposite sides of the back, and the tumor diameter was measured from day 4.

DO11.10 cells [6] = test: Antigen presentation by F2-IA^d vascular endothelial cells (CD69 expression by DO11.10 cells); type: cell-based, mouse
Procedure: EL4 cells were first opsonized with RGD peptide. Next, 5 mg/ml OVA protein was loaded on the cytoplasm by osmotic pressure loading. After sufficient washing, 2×10^6 EL4 cells were added to a confluent culture medium of F2-IA^d cells on a 24-well plate (cultured for 2 days in advance in the presence of 500 U/ml rmIFN-γ). As a control, EL4 and EG7 mock-loaded with PBS were RGD-modified in the same manner and used. EL4 and other target cells were added to F2-IA^d, and the cell mixture was cultured for 24 hr. As for the control well wherein F2-IA^d cells were directly loaded with OVAII peptide, the cells were pulsed with peptide for 2 hr at the end of the culture. After removing the non-adherent cells and debris of dead cells, the surface of the adhered F2-IA^d cells was sufficiently washed. In an antigen presentation inhibitory experiment using chloroquine, 100 μM chloroquine was added 30 min before addition of EL4, EL4 loaded with OVA or 0.25 mg/ml OVA protein. Furthermore, F2-IA^d cells were cultured for 3 days in the continuous presence of chloroquine.
Whether the F2-IA^d cells presented the target antigen polypeptide on the cell surface was evaluated by monitoring the expression of CD69 by DO11.10 cells. The antigen-presenting F2-IA^d cells and DO11.10 cells were mixed and centrifuged to contact the cells with one another. After 6 hr and 24 hr, the cells were stained with biotin-labeled anti CD69 mAb (H1.2F3, BD Biosciences), and the expression of CD69 by DO11.10 cells was detected by flow cytometry (stained positive with FITC-labeled KJ1.26 (anti clonotypic TCR mAb)).

[7] = system: FBL3 erythroleukemia cells; test: In vivo antitumor activity in FBL3 tumor mice immunized with MHC class I and class II peptide; conditions: CBF1 mouse
Text: In the immunization experiment using mouse, the mouse was immunized with PbW332bPβ peptide as a Th-inducing peptide, and Db126 peptide as a CTL inducing peptide. As a tumor to be inoculated to the mouse, FBL3 erythroleukemia cell that highly expresses natural WT1 tumor antigen was used. FBL3 is a cell line that was transformed by infection with Friend leukemia virus, and has high possibility of also expressing virus antigen. In fact, when 2×10^7 FBL3 cells were intradermally injected on the back of the mouse, they grew into a solid tumor. However, the tumor had the tendency to shrink naturally after reaching the maximum size. […] Over time, the tumor sometimes started to grow rapidly in a long-term observation.
CBF1 mouse was immunized in advance by subcutaneous injection of 50 nmoles of Db126 peptide alone, or Db126 peptide and 50 nmoles of W332 peptide, to 4 sites in the top, bottom, left and right of the back. A vaccine of 5×10^7 Bordetella pertussis whole cells was added as an adjuvant to all immunization groups including control PBS inoculation group. The mouse was immunized 3 times (once per week) and then 2×10^7 FBL3 cells were subcutaneously injected to the back.

[8] = low concentration of pulsed peptide (0.1 μM or less) (FIG. 5)

## CC[C@H](C)[C@H](N)C(=O)N[C@@H](CO)C(=O)N[C@@H](CCC(N)=O)C(=O)N[C@@H](C)C(=O)N[C@H](C(=O)N[C@@H](Cc1c[nH]cn1)C(=O)N[C@@H](C)C(=O)N[C@@H](C)C(=O)N[C@@H](Cc1c[nH]cn1)C(=O)N[C@@H](C)C(=O)N[C@@H](CCC(=O)O)C(=O)N[C@H](C(=O)N[C@@H](CC(N)=O)C(=O)N[C@@H](CCC(=O)O)C(=O)N[C@@H](C)C(=O)NCC(=O)NCCC(=O)O)[C@@H](C)CC)C(C)C [OVIIβ] (HELM PEPTIDE1{I.S.Q.A.V.H.A.A.H.A.E.I.N.E.A.G.[bAla]}$$$$V2.0; N-terminus and C-terminus assumed)
Serum peptidase [1]
  protection of peptide from digestion: protects about half of the peptide

## CC[C@H](C)[C@H](NC(=O)[C@H](CCC(=O)O)NC(=O)[C@H](C)NC(=O)[C@H](Cc1c[nH]cn1)NC(=O)[C@H](C)NC(=O)[C@H](C)NC(=O)[C@H](Cc1c[nH]cn1)NC(=O)[C@@H](NC(=O)[C@H](C)NC(=O)[C@H](CCC(N)=O)NC(=O)[C@H](CO)NC(=O)[C@@H](NC(=O)[C@H](CO)NC(=O)[C@@H]1CCCN1)[C@@H](C)CC)C(C)C)C(=O)N[C@@H](CC(N)=O)C(=O)N[C@@H](CCC(=O)O)C(=O)N[C@@H](C)C(=O)N1CCC[C@H]1C(=O)NCCC(=O)O [POVIIPβ]
Serum peptidase [2]; 10% fresh mouse serum, up to 16 hr (FIG. 21)
  digestion resistance to serum peptidases (in words): further additional protective effect

## CC[C@H](C)[C@H](NC(=O)[C@H](CCC(=O)O)NC(=O)[C@H](C)NC(=O)[C@H](Cc1c[nH]cn1)NC(=O)[C@H](C)NC(=O)[C@H](C)NC(=O)[C@H](Cc1c[nH]cn1)NC(=O)[C@@H](NC(=O)[C@H](C)NC(=O)[C@H](CCC(N)=O)NC(=O)[C@H](CO)NC(=O)[C@@H](NC(=O)[C@H](CCCCNC(=O)CCCC[C@@H]1SC[C@@H]2NC(=O)N[C@@H]21)NC(=O)[C@H](CO)NC(=O)[C@@H]1CCCN1)[C@@H](C)CC)C(C)C)C(=O)N[C@@H](CC(N)=O)C(=O)N[C@@H](CCC(=O)O)C(=O)N[C@@H](C)C(=O)N[C@@H](CCCCNC(=O)CCCC[C@@H]1SC[C@@H]2NC(=O)N[C@@H]21)C(=O)N1CCC[C@H]1C(=O)NCCC(=O)O [PbOVIIbPβ] (H-PSK(Biotin)ISQAVHAAHAEINEAK(Biotin)P[βAla]-OH; N-terminus and C-terminus assumed)
Serum peptidase [2]; mouse, serum
  level of epitope remaining in the serum compared with POVIIPβ: almost the same for both peptides

## CC[C@H](C)[C@H](NC(=O)[C@H](CCC(=O)O)NC(=O)[C@H](C)NC(=O)[C@H](Cc1c[nH]cn1)NC(=O)[C@H](C)NC(=O)[C@H](C)NC(=O)[C@H](Cc1c[nH]cn1)NC(=O)[C@@H](NC(=O)[C@H](C)NC(=O)[C@H](CCC(N)=O)NC(=O)[C@H](CO)NC(=O)[C@@H](NC(=O)[C@H](CCCCNC(=O)CCCC[C@@H]1SC[C@@H]2NC(=O)N[C@@H]21)NC(=O)[C@@H](N)CO)[C@@H](C)CC)C(C)C)C(=O)N[C@@H](CC(N)=O)C(=O)N[C@@H](CCC(=O)O)C(=O)N[C@@H](C)C(=O)N[C@@H](CCCNC(=N)N)C(=O)O [bOVII+] (H-SK(Biotin)ISQAVHAAHAEINEAR-OH; N-terminus and C-terminus assumed)
Serum peptidase [1]
  digestion resistance to serum peptidases (in words): no digestion resistance

## CC(C)C[C@H](NC(=O)[C@@H](O)[C@H](N)Cc1ccccc1)C(=O)O [bestatin]
[3]
  inhibition of OVII peptide digestion / peptidase activity in serum: about half of the peptidase activity was suppressed

## C[C@H](CS)C(=O)N1CCC[C@H]1C(=O)O [captopril]
DO11.10 cells [4]; 2.5 mM captopril in medium (FIGS. 14, 15)
  sensitization activity of OVII on addition of captopril: improved the sensitization activity of OVII to a level close to that of OVIIPA peptide
DO11.10 cells [4]; 5 mM captopril
  survival of DO11.10 cells: cannot survive
[3]
  inhibition of OVII peptide digestion / peptidase activity in serum: suppressed in a concentration-dependent manner

## Ac-ISQAVHAAHAEINEA [ac-OVII]
Serum peptidase [1]
  digestion resistance to serum peptidases (in words): higher protection effect than the above-mentioned single modification of the C terminal side
DO11.10 cells [4]; 10% FCS-DMEM, compared to OVII (FIG. 11)
  sensitization activity / Th inducing activity (in words): almost no influence on the sensitization activity; also recorded: no difference from OVII

## ISQAVHAAHAEINEAGR (peptide inducing Th) [OVAII]
DO11.10 cells [5]; high concentration of pulsed peptide (FIG. 5)
  migration of DO11.10 cells through F2-IA^d cell layer: did not migrate by penetrating the F2-IA^d cell layer
DO11.10 cells [5]; [8]
  migration of DO11.10 cells through F2-IA^d cell layer: actively migrated, and penetrated the F2-IA^d cell layer
EG7 tumor
  tumor control, Th peptide together with OVA-I: enabled better control of the tumor; also recorded: completely disappeared in a part of the mice
DO11.10 cells [6]; F2-IA^d cells pulsed with 0.1 μM peptide
  expression of CD69 in DO11.10 cells: induced expression of CD69 in DO11.10 cells to the same level as when OVA-loaded EL4 was incorporated
DO11.10 cells [6]; F2-IA^d cells pulsed with peptide (FIG. 2)
  stimulation of DO11.10 cells by peptide-pulsed endothelial cells: could stimulate DO11.10 cells
DO11.10 cells [6]; [8]
  induction of the expression of CD69: induction of the expression of CD69 was hardly confirmed

## ISQAVHAAHAEINEAPA [OVIIPA]
Serum peptidase [2]; 10% fresh mouse serum, within 4 hr
  protection of peptide from digestion: protects about half of the peptide

## KRYFKLSHLQMHSRKH [W332, WT1 antigen-derived polypeptide]
[7]; 50 nmoles each peptide s.c. with Wc adjuvant, 3 times, FBL3 tumor (FIG. 29)
  antitumor activity, Th-inducing peptide together with Db126 peptide: stronger antitumor activity than Db126 single peptide immunization
[7]; FBL3 tumor, vs Wc alone, Db126 or W332 single immunization
  long-term remaining tumor, Th-inducing peptide together with Db126 peptide: tends to shrink

## LEDARRLKAIYEKKK [X peptide, third party antigen peptide]
EG7 tumor
  tumor control, Th peptide together with OVA-I: could delay tumor growth as compared to CTL single induction, but the mouse finally died

## OVA-I: K^b-binding OVA-I peptide, which is a CTL inducing peptide (SIINFEKL; UniProt P01012 258-265, looked up, fragment)
EG7 tumor
  tumor control, CTL-inducing peptide alone: tumor control was only possible to a limited degree
